The conditions of data set [1]: in vivo; cited from earlier work.
The test system of data set [2] is Mecp2 Het mice. Kind of data set: Prepulse inhibition (PPI) of the acoustic startle response. It is filed as in vivo. As to conditions: ketamine 8 mg/kg; for % PPI 73 dB: prepulse 73 dB; for % PPI 76 dB: prepulse 76 dB; for % PPI 82 dB: prepulse 82 dB. As for the experimental part: Prepulse inhibition (PPI) of the acoustic startle response (ASR) was measured to assess sensorimotor gating function using Med Associates Startle Response recording system. Mice were divided into four groups (Het ketamine, Het vehicle, Wt ketamine, Wt vehicle), and received injections of either ketamine (8 mg/kg) or an equivalent amount of saline immediately before they were placed individually inside a small-sized, nonrestrictive, cubical Plexiglas recording chamber [2.5 inches (L)×2.5 inches (W)×1.75 inches (H)] fixed on an accelerometer platform and allowed to acclimate for 5 min. Subsequently, the mouse was exposed to 4 testing blocks. In the first testing block, the initial startle response amplitude was determined by delivering a 40 ms pulse of 120 dB broadband white noise and recording the maximum startle amplitude (Vmax). A baseline startle response was determined by repeating this recording paradigm for six consecutive trials (with 8-23 s between each stimulus) and calculating the average Vmax measured in those trials. In the second and third testing blocks, the mice were exposed to a series of “pulse-only” or “prepulse-pulse pair” stimuli to determine the effect that a reduced intensity prepulse had on the acoustic startle response. The pulse-only stimulus consisted of an 80 ms stimulus of 120 dB. The prepulse-pulse pair trials were conducted by delivering a single 20 ms prepulse, with an intensity of 73, 76 or 82 dB before an 80 ms stimulus with an intensity of 120 dB. An average delay of 15 s (8-23 s) occurred between each stimulus. Each prepulse-pulse pair trial was repeated 10 times, pulse only trials were repeated 12 times. The Vmax measured from each prepulse-pulse trial was compared with the Vmax measured from the 120 dB pulse-only trials, and a percentage prepulse inhibition (% PPI) was calculated for each prepulse intensity. In the fourth testing block, startle response Vmax was recorded from 6 additional 40 ms pulses of 120 dB broadband white noise (with 8-23 s between each stimulus) and compared with the baseline startle response from the first testing block to eliminate the possibility of habituation to the acoustic stimulus throughout the test.

Data set [3] deals with Fos expression in the forebrain (piriform cortex). Kind of data set: Fos immunostaining 90 min after ketamine injection, count of Fos-positive cells. It is filed as in vivo, mice. Particulars: for number of Fos-positive cells in the piriform cortex: 90 min after injection.
Method: Three- and 6-week-old male mice, or 11-week-old female mice, were deeply anesthetized by inhalation of isoflurane and perfused transcardially with PBS followed by ice-cold 4% paraformaldehyde in 0.1Mphosphate buffer, pH7.4, within 10 min. […] Brains were postfixed in 4% paraformaldehyde for 2.5 h, cryoprotected in 25% sucrose overnight, then frozen in 2-methylbutane at −45° C. and stored at −80° C. Coronal sections were cut at 40 μm with a cryostat microtome (Jung Frigocut 2800 N) and stored in PBS at 4° C.
Free-floating 40 μm sections were processed for Fos immunostaining by blocking with 10% goat serum in dilution buffer (PBS, BSA, 0.3% Triton X-100) for 1.5 h and then incubated overnight at room temperature (20±2 h) in rabbit polyclonal anti-c-Fos primary antibody (1:3000, Calbiochem) in dilution buffer plus 10% goat serum. After sequential rinse steps in dilution buffer and PBS, sections were incubated in biotinylated goat anti-rabbit IgG secondary antibody (1:400, Vector Labs) in dilution buffer plus 15% goat serum for 1 h. After rinsing in PBS, sections were incubated in avidin and biotinylated horseradish peroxidase complex (ABC, 1:150, Vector Labs). Finally, sections were developed using the Sigma Fast diaminobenzidine and urea hydrogen peroxide set, mounted on Super Frost Plus slides and coverslipped using VectaShield (Vector Labs).
Animals were administered ketamine (8, 20, or 100 mg/kg, i.p.) or an equivalent volume of saline and then returned to their home cage for 90 min. Subsequently, the animals were deeply anesthetized by inhalation of isoflurane, perfused transcardially, and processed for Fos staining as described above.
Sections were visualized and photographed using an AxioSkop2 microscope (Zeiss) equipped with a Quantifire XI microscope camera (Optronics). Fos positive cells were counted using point by-point analysis with Neurolucida software (MBF Bioscience). Before analysis, the photomicrographs were coded so that the observers were blinded to the genotype. Cells were counted in every third section through the nTS, and in a representative subset of sections through the other brain regions analyzed. All sections were analyzed twice by two independent and blinded observers, and respective counts were averaged. The nTS was sampled at 12 levels through the rostro-caudal extent of the nucleus and the average counts at each level were then added together to estimate the total number of labeled cells per animal. To define genotype effects on Fos expression, G*Power 3 power analysis software was used to determine group sizes.
Data set [4] deals with RTT mice (Mecp2Jae females). Kind of data set: Intermittent very low dose ketamine regimen with plethysmography. It is filed as in vivo. Particulars: 3 mg/kg once every 3 days for two weeks, measured 24 hours after the last injection. How it is done:
FIG. 14 illustrates a very low dose ketamine (3 mg/kg) dosing regimen for the treatment of RTT in miceMecp2Jae OC females treated once every 72 hours for two weeks (saline or Ketamine 3 mg/kg) with plethysmography measurement 24 hours after the last injection.
This Example evaluated a ketamine dosing regimen for the treatment of Rett syndrome. […] These effects are consistent with the ability of ketamine to increase activity in cortical pyramidal cells by selectively inhibiting cortical inhibitory interneurons.

On to `CNC1(c2ccccc2Cl)CCCCC1=O` (stereo not drawn) [ketamine], for which the half-life result in data set [1] was “less than 1 hour”. Also, the entries for the “% PPI 73 dB” value in data set [2] (Het mice) and in data set [2] (Wt mice) were 5.3±5.8% and 7.8±4.1%, respectively. Moreover, the figures for the “% PPI 76 dB” value in data set [2] (Het mice) and in data set [2] (Wt mice) were 17.8±2.9% and 12.8±4.8%, respectively. Also, the “% PPI 82 dB” value in data set [2] (Het mice) is 21.4±6.4%; in data set [2] (Wt mice), 24.1±5.8%. Also, the “number of Fos-positive cells in the piriform cortex” value in data set [3] (Null mice, ketamine 20 mg/kg i.p.) came out at 83.2±18.2 cells; in data set [3] (Null mice, ketamine 100 mg/kg i.p.) it was 116.3±26.4 cells; in data set [3] (Wt mice, ketamine 100 mg/kg i.p.), 119.3±17.2 cells. Also, in data set [3] (Wt mice, ketamine 100 mg/kg, piriform cortex), the “increase in the number of Fos-positive cells” value was found to be 20%. The apneic breathing result in data set [4] was “complete elimination”.

These data come from US11213494B2 (priority 2016, dated 2022).
